Measured values: patent US9399638B2, “Substituted pyridine compounds as CRAC modulators” (LUPIN LIMITED, priority 2012, dated 2016)

Tested on: IL-2 secretion by Jurkat T cells
Experiment: Inhibition of IL-2 secretion
Format: cell-based
Conditions: Homo sapiens; Jurkat T cells stimulated with PHA, 20 to 24 hours, IL-2 by ELISA
Protocol: The CRAC channel modulatory activity of the compounds were thus evaluated by measuring the secretion of IL-2 by antigen stimulated T-cells in vitro. Alternatively, such activity can also be evaluated by assay methods known to one skilled in the art.
Inhibition of IL-2 secretion: Jurkat T cells were seeded at a density of 0.5 to 1 million cells per well in RPMI medium. Test compounds from this invention were added to the cells at different concentrations. This was followed by the addition of PHA, a T cell mitogen after 10 minutes. The cells were then incubated for 20 to 24 hours in a CO2 incubator at 37° C. After incubation with the compounds, cells were centrifuged, the supernatant was collected and processed for ELISA to quantitate the amount of IL-2 secreted. A commercial ELISA kit (R&D Systems, Inc. Minneapolis, Minn., USA) was used to estimate the IL-2 concentrations. Amount of IL-2 secreted by cells stimulated with PHA was considered as a 100% maximal signal and the decrease in amount of IL-2 secreted by cells treated with the test compounds was expressed as percent inhibition of the maximal signal. The dose response data was analyzed using 4-parametric sigmoidal dose response (variable slope) curve—fit.

SMILES	IC50 [nM]
Cc1cc(NC(=O)c2c(F)cccc2F)ccc1-c1cc(-c2nn(C)c(=O)o2)cnc1C1CC1 [Example 32, N-(4-(2-Cyclopropyl-5-(4-methyl-5-oxo-4,5-dihydro-1,3,4-oxadiazol-2-yl)pyridin-3-yl)-3-methylphenyl)-2,6-difluorobenzamide]	< 100
Cn1nc(-c2cnc(C3CC3)c(-c3cnc(NC(=O)c4c(F)cccc4F)cn3)c2)oc1=O [Example 33, N-(5-(2-Cyclopropyl-5-(4-methyl-5-oxo-4,5-dihydro-1,3,4-oxadiazol-2-yl)pyridin-3-yl)pyrazin-2-yl)-2,6-difluorobenzamide]	< 100
Cn1nc(-c2cnc(C3CC3)c(-c3cnc(NC(=O)c4c(F)cccc4Cl)cn3)c2)oc1=O [Example 34, 2-Chloro-N-(5-(2-cyclopropyl-5-(4-methyl-5-oxo-4,5-dihydro-1,3,4-oxadiazol-2-yl)pyridin-3-yl)pyrazin-2-yl)-6-fluorobenzamide]	100 to 1000
Cn1nc(-c2cnc(C3CC3)c(-c3ccc(NC(=O)c4c(F)cccc4F)cn3)c2)oc1=O [Example 35, N-(2′-Cyclopropyl-5′-(4-methyl-5-oxo-4,5-dihydro-1,3,4-oxadiazol-2-yl)-[2,3′-bipyridin]-5-yl)-2,6-difluorobenzamide]	< 100
Cn1nc(-c2cnc(C3CC3)c(-c3ccc(NC(=O)c4c(F)cccc4F)nc3)c2)oc1=O [Example 36, N-(2′-Cyclopropyl-5′-(4-methyl-5-oxo-4,5-dihydro-1,3,4-oxadiazol-2-yl)-[3,3′-bipyridin]-6-yl)-2,6-difluorobenzamide]	< 100
Cn1nc(-c2cnc(C(F)(F)F)c(-c3cnc(NC(=O)c4c(F)cccc4F)cn3)c2)oc1=O [Example 37, 2,6-Difluoro-N-(5-(5-(4-methyl-5-oxo-4,5-dihydro-1,3,4-oxadiazol-2-yl)-2-(trifluoromethyl)pyridine-3-yl)pyrazin-2-yl)benzamide]	< 100
Cn1nc(-c2cnc(C(F)(F)F)c(-c3ccc(NC(=O)c4c(F)cccc4F)nc3)c2)oc1=O [Example 38, 2,6-Difluoro-N-(5′-(4-methyl-5-oxo-4,5-dihydro-1,3,4-oxadiazol-2-yl)-2′-(trifluoromethyl)-[3,3′-bipyridin]-6-yl)benzamide]	100 to 1000
Cn1nc(-c2cnc(C(F)(F)F)c(-c3ccc(NC(=O)c4c(F)cccc4F)cn3)c2)oc1=O [Example 39, 2,6-Difluoro-N-(5′-(4-methyl-5-oxo-4,5-dihydro-1,3,4-oxadiazol-2-yl)-2′-(trifluoromethyl)-[2,3′-bipyridin]-5-yl)benzamide]	100 to 1000
CCc1ncc(-c2nn(C)c(=O)o2)cc1-c1ccc(NCc2c(F)cccc2F)cn1 [Example 40, 5-(5-((2,6-Difluorobenzyl)amino)-2′-ethyl-[2,3′-bipyridin]-5′-yl)-3-methyl-1,3,4-oxadiazol-2(3H)-one]	100 to 1000
CCc1ncc(-c2nn(C)c(=O)o2)cc1-c1ccc(NCc2c(F)cccc2F)nc1 [Example 41A, 5-(6′-((2,6-Difluorobenzyl)amino)-2-ethyl-[3,3′-bipyridin]-5-yl)-3-methyl-1,3,4-oxadiazol-2(3H)-one]	> 1000
CCc1ncc(-c2nn(C)c(=O)o2)cc1-c1cc(C)c(NC(=O)c2c(F)cccc2F)cn1 [Example 41B, N-(2′-Ethyl-4-methyl-5′-(4-methyl-5-oxo-4,5-dihydro-1,3,4-oxadiazol-2-yl)-[2,3′-bipyridin]-5-yl)-2,6-difluorobenzamide]	100 to 1000
CCc1ncc(-c2nn(C)c(=O)o2)cc1-c1cnc(NC(=O)c2c(F)cccc2F)cc1C [Example 41]	< 100
Cn1nc(-c2cnc(C3CC3)c(-c3ccc(C(=O)Nc4c(F)cccc4Cl)s3)c2)oc1=O [Example 42, N-(2-Chloro-6-fluorophenyl)-5-(2-cyclopropyl-5-(4-methyl-5-oxo-4,5-dihydro-1,3,4-oxadiazol-2-yl)pyridin-3-yl)thiophene-2-carboxamide]	< 100
Cc1cnccc1NC(=O)c1ccc(-c2cc(-c3nn(C)c(=O)o3)cnc2C2CC2)s1 [Example 43, 5-(2-Cyclopropyl-5-(4-methyl-5-oxo-4,5-dihydro-1,3,4-oxadiazol-2-yl)pyridin-3-yl)-N-(3-methylpyridin-4-yl)thiophene-2-carboxamide]	< 100
CCc1ncc(-c2nn(C)c(=O)o2)cc1-c1ccc(C(=O)Nc2c(F)cccc2F)o1 [Example 44, N-(2,6-Difluorophenyl)-5-(2-ethyl-5-(4-methyl-5-oxo-4,5-dihydro-1,3,4-oxadiazol-2-yl)pyridin-3-yl)furan-2-carboxamide]	> 1000
Cn1nc(-c2cnc(C3CC3)c(-c3ccc(C(=O)Nc4c(F)cccc4F)o3)c2)oc1=O [Example 45, 5-(2-Cyclopropyl-5-(4-methyl-5-oxo-4,5-dihydro-1,3,4-oxadiazol-2-yl)pyridin-3-yl)-N-(2,6-difluorophenyl)furan-2-carboxamide]	> 1000

SMILES	IC50 [nM]
CCc1ncc(-c2nn(C)c(=O)o2)cc1-c1ccc(NC(=O)c2c(F)cncc2F)cc1 [Example 46, N-(4-(2-Ethyl-5-(4-methyl-5-oxo-4,5-dihydro-1,3,4-oxadiazol-2-yl)pyridin-3-yl)phenyl)-3,5-difluoroisonicotinamide]	100 to 1000
CCc1ncc(-c2nn(C)c(=O)o2)cc1-c1ccc(NC(=O)c2c(C)cccc2F)cc1 [Example 47, N-(4-(2-Ethyl-5-(4-methyl-5-oxo-4,5-dihydro-1,3,4-oxadiazol-2-yl)pyridin-3-yl)phenyl)-2-fluoro-6-methylbenzamide]	100 to 1000
CCc1ncc(-c2nn(C)c(=O)o2)cc1-c1ccc(NC(=O)c2c(F)cccc2Cl)cc1 [Example 48, 2-Chloro-N-(4-(2-ethyl-5-(4-methyl-5-oxo-4,5-dihydro-1,3,4-oxadiazol-2-yl)pyridin-3-yl)phenyl)-6-fluorobenzamide]	100 to 1000
CCc1ncc(-c2nn(C)c(=O)o2)cc1-c1ccc(NC(=O)c2snnc2C)cc1 [Example 49, N-(4-(2-Ethyl-5-(4-methyl-5-oxo-4,5-dihydro-1,3,4-oxadiazol-2-yl)pyridin-3-yl)phenyl)-4-methyl-1,2,3-thiadiazole-5-carboxamide]	100 to 1000
CCc1ncc(-c2nn(C)c(=O)o2)cc1-c1ccc(NC(=O)c2c(C)noc2C)cc1 [Example 50, N-(4-(2-Ethyl-5-(4-methyl-5-oxo-4,5-dihydro-1,3,4-oxadiazol-2-yl)pyridin-3-yl)phenyl)-3,5-dimethylisoxazole-4-carboxamide]	> 1000
CCc1ncc(-c2nn(C)c(=O)o2)cc1-c1ccc(NC(=O)c2ccncc2C)cc1 [Example 51, N-(4-(2-Ethyl-5-(4-methyl-5-oxo-4,5-dihydro-1,3,4-oxadiazol-2-yl)pyridin-3-yl)phenyl)-3-methylisonicotinamide]	> 1000
CCc1ncc(-c2nn(C)c(=O)o2)cc1-c1cnc(NC(=O)c2c(F)cccc2F)cn1 [Example 53, 2,6-Difluoro-N-(5-(2-ethyl-5-(4-methyl-5-oxo-4,5-dihydro-1,3,4-oxadiazol-2-yl)pyridin-3-yl)pyrazin-2-yl)benzamide]	100 to 1000
CCc1ncc(-c2nn(C)c(=O)o2)cc1-c1cnc(NC(=O)c2c(F)cccc2Cl)cn1 [Example 54, 2-Chloro-N-(5-(2-ethyl-5-(4-methyl-5-oxo-4,5-dihydro-1,3,4-oxadiazol-2-yl)pyridin-3-yl)pyrazin-2-yl)-6-fluorobenzamide]	< 100
Cc1ncc(-c2nn(C)c(=O)o2)cc1-c1cnc(NC(=O)c2c(F)cccc2F)cn1 [Example 55, 2,6-Difluoro-N-(5-(2-methyl-5-(4-methyl-5-oxo-4,5-dihydro-1,3,4-oxadiazol-2-yl)pyridin-3-yl)pyrazin-2-yl)benzamide]	100 to 1000
CNc1ncc(-c2nn(C)c(=O)o2)cc1-c1cnc(NC(=O)c2c(F)cccc2F)cn1 [Example 56, 2,6-Difluoro-N-(5-(5-(4-methyl-5-oxo-4,5-dihydro-1,3,4-oxadiazol-2-yl)-2-(methylamino)pyridin-3-yl)pyrazin-2-yl)benzamide]	> 1000
CCc1ncc(-c2nn(C)c(=O)o2)cc1-c1ccc(C(=O)Nc2c(F)cccc2F)s1 [Example 57, N-(2,6-Difluorophenyl)-5-(2-ethyl-5-(4-methyl-5-oxo-4,5-dihydro-1,3,4-oxadiazol-2-yl)pyridin-3-yl)thiophene-2-carboxamide]	< 100
Cc1ncc(-c2nn(C)c(=O)o2)cc1-c1ccc(C(=O)Nc2c(F)cccc2F)s1 [Example 58, N-(2,6-Difluorophenyl)-5-(2-methyl-5-(4-methyl-5-oxo-4,5-dihydro-1,3,4-oxadiazol-2-yl)pyridin-3-yl)thiophene-2-carboxamide]	100 to 1000
Cn1nc(-c2cnc(C3CC3)c(-c3ccc(C(=O)Nc4c(F)cccc4F)s3)c2)oc1=O [Example 59, 5-(2-Cyclopropyl-5-(4-methyl-5-oxo-4,5-dihydro-1,3,4-oxadiazol-2-yl)pyridin-3-yl)-N-(2,6-difluorophenyl)thiophene-2-carboxamide]	< 100
Cn1nc(-c2cnc(C(F)(F)F)c(-c3ccc(C(=O)Nc4c(F)cccc4F)s3)c2)oc1=O [Example 60, N-(2,6-Difluorophenyl)-5-(5-(4-methyl-5-oxo-4,5-dihydro-1,3,4-oxadiazol-2-yl)-2-(trifluoromethyl)pyridin-3-yl)thiophene-2-carboxamide]	< 100
CNc1ncc(-c2nn(C)c(=O)o2)cc1-c1ccc(C(=O)Nc2c(F)cccc2F)s1 [Example 61, N-(2,6-Difluorophenyl)-5-(5-(4-methyl-5-oxo-4,5-dihydro-1,3,4-oxadiazol-2-yl)-2-(methylamino)pyridin-3-yl)thiophene-2-carboxamide]	< 100
